Results as given in patent publication US5719291A, “Cyclohexane derivatives” (Hoffmann-La Roche Inc., priority 1991, dated 1998).
Structures can show the parent of a compound that is named as a salt. Where two headings read alike, the source gives them in different places.

Key:
Candida albicans = experiment: In vitro antifungal activity, MIC (Method A); type: cell-based; conditions: 3 days, 27° C.; for MIC: Candida albicans, 72 h; for Antifungal activity MIC: 1×10^5 cells/ml, pH 7.0
Experimental: (§1) The in vitro antifungal activities of representative compounds of the present invention were measured by determining the minimal inhibitory concentration (MIC), which is the concentration of an antifungal at which no fungal growth can be observed.
(§2) The MICs were determined by the microbroth dilution procedure according to NCCLS with the following minor modifications (Galgiani et al., Antimicrob. Agents Chemother., 33, 731 (1989). The medium was solidified with 0.2% low melting point agarose and buffered to pH 7.0 with 0.25%: K2 HPO4 in Yeast Nitrogen Base (Difco Lab.). Inoculum size was 1×10^5 cells/ml, and incubation was carried out for 3 days at 27° C. The MICs ([…]) are shown in Table 1. The reference compound is compound (IA) in U.S. Pat. No. 4,952,604. The compounds used are identified by reference to the Examples in which they were prepared.
(§3) The in vitro antifungal activities of the representative compounds of the present invention shown in Table 1 and Table 2 were measured by determining the minimal inhibitory concentrations (MIC: Method A) or 80% growth inhibition concentration (IC80 : Method B) respectively. MIC is defined as the concentration of an antifungal at which growth of fungi is not observed and IC80 is the concentration where cell turbidity measured at OD630 is reduced by 80%.
(§4) Antifungal activities were determined by either method A or B (see below) using microtest plates according NCCLS with minor modifications (Galgiani et at., Antimicrob. Agents Chemother. 33, 731 (1989)).
(§5) (Method A) The medium was solidified with 0.2% low melting point agarose and buffered to pH 7.0 with 0.25% K2 HPO4 in Yeast Nitrogen Base (Difco Lab.). Inoculum size was 1×10^5 cells/ml, and incubation was carried out for 3 days at 27° C. The reference compound is compound (IA) in U.S. Pat. No. 4,952,604.

Cryptococcus neoformans = experiment: In vitro antifungal activity, MIC (Method A); type: cell-based; conditions: 3 days, 27° C.; for MIC: Cryptococcus neoformans, 72 h; for Antifungal activity MIC: 1×10^5 cells/ml, pH 7.0
Experimental: as §1, §2, §3, §4, §5

Aspergillus fumigatus = experiment: In vitro antifungal activity, MIC (Method A); type: cell-based; conditions: 3 days, 27° C.; for MIC: Aspergillus fumigatus, 72 h; for Antifungal activity MIC: 1×10^5 cells/ml, pH 7.0
Experimental: as §1, §2, §3, §4, §5

[1] = Acute toxicity (LD50) by oral administration in mice; type: in vivo

Row | Compound | MIC (Candida albicans; pH 7, Candida albicans CY1002, 1×10^5 cells/ml) [µg/mL] | MIC (Candida albicans; pH 7, Candida albicans CY1005, 1×10^5 cells/ml) [µg/mL] | MIC (Candida albicans; pH 7, Candida albicans CY3003, 1×10^5 cells/ml) [µg/mL] | MIC (Cryptococcus neoformans; pH 7, Cryptococcus neoformans CY1057, 1×10^5 cells/ml) [µg/mL] | MIC (Cryptococcus neoformans; pH 7, Cryptococcus neoformans CY1059, 1×10^5 cells/ml) [µg/mL] | MIC (Cryptococcus neoformans; pH 7, Cryptococcus neoformans CY1061, 1×10^5 cells/ml) [µg/mL] | MIC (Aspergillus fumigatus; pH 7, Aspergillus fumigatus CF1003, 1×10^5 cells/ml) [µg/mL] | MIC (Aspergillus fumigatus; pH 7, Aspergillus fumigatus CF1004, 1×10^5 cells/ml) [µg/mL] | MIC (Aspergillus fumigatus; pH 7, Aspergillus fumigatus CF1023, 1×10^5 cells/ml) [µg/mL] | LD50 ([1]; mouse, in vivo, read-out: LD50) [mg/kg] | Antifungal activity MIC (Candida albicans; Candida albicans CY1002) [µg/mL] | Antifungal activity MIC (Candida albicans; Candida albicans CY1005) [µg/mL] | Antifungal activity MIC (Candida albicans; Candida albicans CY3003) [µg/mL] | Antifungal activity MIC (Cryptococcus neoformans; Cryptococcus neoformans CY1057) [µg/mL] | Antifungal activity MIC (Cryptococcus neoformans; Cryptococcus neoformans CY1059) [µg/mL] | Antifungal activity MIC (Cryptococcus neoformans; Cryptococcus neoformans CY1061) [µg/mL] | Antifungal activity MIC (Aspergillus fumigatus; Aspergillus fumigatus CF1003) [µg/mL] | Antifungal activity MIC (Aspergillus fumigatus; Aspergillus fumigatus CF1004) [µg/mL] | Antifungal activity MIC (Aspergillus fumigatus; Aspergillus fumigatus CF1023) [µg/mL] | LD50 [1]
1 | CCCCCCC/C=C/[C@@H]1OC[C@H](C)[C@H](OC)[C@H]1OC(=O)CN [Example 4, (2S,3R,4S,5S)-4-methoxy-5-methyl-2-[(E)-1-nonenyl]-tetrahydro-2H-pyran-3-ylglycinate trifluoroacetic acid salt] | 100 | 50 | 50 | 3.13 | 6.25 | 12.5 | 3.13 | 3.13 | 1.56 | > 500 | – | – | – | – | – | – | – | – | – | –
2 | (2S,3R,4S,5S)-5-methyl-2-[(E)-1-nonenyl]-4-propoxy-tetrahydro-2H-pyran-3-ylglycinate trifluoroacetic acid salt [Example 21] | – | – | – | – | – | – | – | – | – | – | 100 | 50 | 100 | 12.5 | 12.5 | 25 | 12.5 | 6.25 | 12.5 | more than 500 mg/kg
